Reference: patent US12115176B2, “Methods and compositions relating to ClbP inhibition” (PRESIDENT AND FELLOWS OF HARVARD COLLEGE, priority 2021, dated 2024)
pIC50: −log10 of the molar value. “Also recorded” adds a separate entry of the source.

Key:
[1] = test system: E. coli NC101 with mouse fecal community; experiment: ClbP inhibition in a microbial community; type: cell-based; settings: E. coli NC101 plus C57BL/6J mouse fecal community, anaerobic, 1 μM 3, LC-MS
Description: ClbP inhibition in a microbial community. Mouse pellets were aseptically collected from cages and immediately stored at −80° C. until use. One 5 mL starter culture each of E. coli NC101 and E. coli NC101ΔclbP was started from frozen stocks in deoxygenated Brain-Heart Infusion media (BHI) inside an anaerobic chamber under a 95% N215% H2 atmosphere and incubated at 37° C. overnight. Mouse fecal pellets were defrosted in the anaerobic chamber and resuspended in BHI with 10 mL media/100 mg pellet mass. The fecal slurry was then centrifuged at 1000×g for 5 minutes to separate solids and the resulting supernatant was used as the media for all “+ community” conditions. Cultures were incubated in 500 μL volumes in triplicate in a deep-well plate under anaerobic conditions, with a 1:100 inoculum of the appropriate E. coli overnight for the “+E. coli” conditions. All samples contained a final concentration of 1% DMSO, with or without 1 μM inhibitor 3. After 20 hours at 37° C., samples were processed, and the concentration of N-myristoyl-D-asparagine quantified via LC-MS/MS as described above.

purified ClbP = purified ClbP (Escherichia coli, UniProt Q0P7K6); experiment: ClbP fluorescence activity assay (in vitro); type: biochemical, Escherichia coli CFT073
From the text: Constructs and protein purification for in vitro assays. ClbP constructs described in this publication were derived from a previously described plasmid containing the Escherichia coli CFT073 ClbP sequence (GenBank ID: NP_754344.1) inserted between the NdeI and XhoI restriction sites of pET29b (Addgene plasmid #48244).^14 All in vitro experiments used a construct bearing a C-terminal 10×His tag. This longer polyhistidine-tag was obtained by extension of the previously described 6×His tag through site-directed mutagenesis. All site-directed mutations were introduced using the Quikchange mutagenesis protocol (Stratagene) and confirmed by Sanger DNA sequencing of the whole open reading frame. Plasmids were transformed into chemically competent C41(DE3) (Lucigen) cells and proteins were isolated as previously described.^34
ClbP fluorescence activity assay (in vitro). Assays were performed in a buffer containing 50 mM Tris, 200 mM NaCl, 0.02% w/v DDM at pH 8.0 with 25 nM purified ClbP and 25 μM fluorogenic substrate in a total volume of 20 μL.^34 Purified ClbP was defrosted on ice from stocks stored at −80° C. Stocks were diluted to 50 nM enzyme in assay buffer in the wells of a black, flat-bottom 384-well plate and the appropriate inhibitor in DMSO or DMSO was added to a final concentration of 1%. For experiments testing different inhibitor concentrations, reactions were allowed to sit for 1 hour at room temperature. For experiments testing different preincubation times, the inhibitor in DMSO was added to each reaction X minutes before initiating the reaction, where X is the time indicated on the x-axis for that sample. For experiments to test whether hydrolysis of the boronic ester was rate-limiting, the inhibitor was added to buffer with no enzyme present and allowed to sit at room temperature for the time indicated before adding the enzyme. In all cases, reactions were initiated by the addition of 10 μL, of buffer containing the 50 μM fluorogenic substrate to achieve a final concentration of 25 μM and pipetting once with a multichannel pipette to mix. Reaction progress was monitored in a plate reader (Bio-Tek Synergy HTX multimode plate reader) with an excitation filter of 360/40 nm and an emission filter of 440/20 nm. “% activity” was determined based on the measured relative fluorescence units (RFU) of each condition after 1 hour using the following formula: […]

[2] = test system: FANCD2 in HeLa cell extracts; experiment: Western blot for FANCD2; type: cell-based, human; settings: 1 μM 3
Description: Western Blot for FANCD2. Infections were carried out as described above. For conditions which involved other small molecules, no bacteria were introduced during the infection and cells were treated with either 0.5 μg/mL mitomycin C (MMC) or 7.5 μg/mL cisplatin under the same conditions for 4 hours. 20 hours after infection, cells were lysed directly in the culture wells (Lysis buffer: 50 mM Tris, (pH 8.0), 150 mM NaCl, 1% Triton X-100, 0.5% Sodium deoxycholate, 0.05% sodium dodecylsulfate, 1 mM MgSO4, SIGMAFAST Protease inhibitor mix, 100 U/mL benzonase (Millipore-Sigma). Lysates were then spun down at 16,000×g to remove particulates and the supernatant was mixed 1:1 with 2X Laemmli sample buffer (Bio-Rad) containing 50 mg/mL dithiothreitol (DTT). Samples were then heated at 70° C. for 10 minutes and run on an SDS-PAGE gel (3-8% Tris-Acetate Novex gel, Invitrogen) at 150 V for 1.5 hours at 4° C. Bands were then transferred to PVDF membranes (100 V, 1 hour at 4° C.) and blocked with 10% skim milk powder in TBST buffer at 4° C. overnight. Blots were probed sequentially with either mouse anti-actin (1.5 μg/mL) or mouse anti-FANCD2 (0.1 μg/mL) primary antibodies (Thermo Fisher Scientific, Catalog #MA511869 and MA123347), followed by a peroxidase-conjugated goat anti-mouse secondary antibody (Jackson ImmunoResearch product 115-035-003, 0.08 μg/mL). Each probing step was conducted for 90 minutes at room temperature n 2.5% skim milk powder in TBST. Before imaging, blots were washed 3×15 minutes each in TBST […]. Blots were imaged using the SuperSignal™ West Pico PLUS Chemiluminescent Substrate (Thermo Fisher Scientific) kit following the manufacturer's instructions and imaged using an Azure Biosystems c300 imager.

Lactobacillus rhamnosus = experiment: Bacterial MIC assay (broth dilution); type: cell-based; settings: Lacticaseibacillus rhamnosus, 15 h, read-out: MICs by compound

## CC1(C)OB([C@@H](CC(N)=O)NC(=O)CCCc2ccccc2)OC1(C)C [Compound 3]
[1]
  production of prodrug scaffold in a complex microbial community: reduce the release of N-myristoyl-Asn; also recorded: fully suppressed production of the prodrug scaffold; also recorded: can selectively block colibactin biosynthesis; also recorded: can still effectively block colibactin production
Purified ClbP
  pIC50: 7.55
Purified ClbP; slow-binding inhibition assay, 100 nM
  speed of reaching maximum potency, in words: achieved their maximum potency faster than compound 4
[2]; HeLa cells exposed to pks+ E. coli (NC101)
  FANCD2 ubiquitination in colibactin-exposed cells: prevented this response; also recorded: prevents
[2]; HeLa cells
  effect of 3 on FANCD2-Ub response to MMC or cisplatin: had no impact on the response to MMC or cisplatin
Lactobacillus rhamnosus
  MIC: > 200 µM
